Where a chain is given by its changes, count along the chain named. “Also recorded” adds a separate entry of the source.
How the values were obtained:
[1] = target: T1, hVAChT W315A (Homo sapiens, UniProt Q16572, W315A); assay: [3H]vesamicol saturation binding; details: pH 7.4
T1 sequence (Q16572 1-532 W315A): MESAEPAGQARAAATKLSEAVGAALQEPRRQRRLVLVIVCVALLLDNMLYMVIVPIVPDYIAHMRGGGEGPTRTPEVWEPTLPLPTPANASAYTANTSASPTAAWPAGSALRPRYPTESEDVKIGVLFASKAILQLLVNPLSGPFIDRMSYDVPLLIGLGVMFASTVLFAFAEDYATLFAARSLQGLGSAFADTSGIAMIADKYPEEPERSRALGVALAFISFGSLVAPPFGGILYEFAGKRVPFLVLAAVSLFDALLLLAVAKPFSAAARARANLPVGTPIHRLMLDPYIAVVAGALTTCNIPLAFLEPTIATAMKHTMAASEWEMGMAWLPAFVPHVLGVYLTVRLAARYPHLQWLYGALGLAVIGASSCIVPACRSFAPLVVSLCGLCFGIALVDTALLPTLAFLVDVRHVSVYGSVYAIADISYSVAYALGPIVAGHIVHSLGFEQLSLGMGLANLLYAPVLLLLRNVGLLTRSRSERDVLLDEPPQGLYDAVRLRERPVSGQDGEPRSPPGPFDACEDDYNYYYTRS

[2] = target: T2, hVAChT M316A (Homo sapiens, UniProt Q16572, M316A); assay: [3H]vesamicol saturation binding; details: pH 7.4
T2 sequence (Q16572 1-532 M316A): T1 sequence (Q16572 1-532 W315A) with A315W, M316A

[3] = system: rat VAChT (rVAChT) W331 mutants; details: mutations of W331 in rVAChT; ref Ojeda et al. 2004; cited from earlier work
[4] = target: T3, hVAChT Y60W (Homo sapiens, UniProt Q16572, Y60W); assay: [3H]ACh transport; format: biochemical
T3 sequence (Q16572 1-532 Y60W): T1 sequence (Q16572 1-532 W315A) with Y60W, A315W

[5] = target: T4, hVAChT A334F (Homo sapiens, UniProt Q16572, A334F); assay: ACh equilibrium binding by competition against [3H]vesamicol; details: pH 7.4, monophasic fit, FHA fixed to 1
T4 sequence (Q16572 1-532 A334F): T1 sequence (Q16572 1-532 W315A) with A315W, A334F

[6] = target: T5, hVAChT A321F (Homo sapiens, UniProt Q16572, A321F); assay: as above
T5 sequence (Q16572 1-532 A321F): T1 sequence (Q16572 1-532 W315A) with A315W, A321F

Vmax/Bmax, ACh transport normalized to Bmax ([4]; pH 7.4)	Km ([4]; read-out: KM, Michaelis-Menten constant for ACh transport, pH 7.4)	FHA, fraction of the ACh sites that have high affinity [5]	Kd [6]	FHA, fraction of the ACh sites that have high affinity ([6]; A321F hVAChT, pH 7.4)	Compound	Bmax, maximal specific [3H]vesamicol binding (VAChT expression level) [1]	Bmax, maximal specific [3H]vesamicol binding (VAChT expression level) [2]	effect on vesamicol affinity [3]
–	–	–	–	–	O[C@@H]1CCCC[C@H]1N1CCC(c2ccccc2)CC1 (racemic) [vesamicol, ( )-trans-2-(4-phenylpiperidino)cyclohexanol]	26 ± 1 pmol/mg	38 ± 2 pmol/mg	no loss in affinity for vesamicol; also recorded: without affecting vesamicol affinity
7.9 ± 0.8 min⁻¹	920 ± 170 µM	1.0	15 ± 2 mM	0.90 ± 0.06	CC(=O)OCC[N+](C)(C)C [ACh, acetylcholine]	–	–	–

Reference: PMC2962730 (Journal of neurochemistry, 2010)
